Experimental data reported in the NIST ThermoML archive (doi:10.1016/j.jct.2012.05.014).

Assay: xn = mol fraction of the nth substance listed
Settings: Fluid (supercritical or subcritical phases), Gravimetric method

CCCCCCNC(=O)C(=O)NCCCCCC [N1,N2-dihexyloxalamide] + O=C=O
Settings | mass density [kg/m3]
313 K, 9100 kPa, x1 = 0.000112 | 517.19
313 K, 9500 kPa, x1 = 0.0002518 | 584.52
313 K, 9800 kPa, x1 = 0.000392 | 615.65
313 K, 10100 kPa, x1 = 0.0005214 | 638.82
313 K, 10400 kPa, x1 = 0.0006463 | 657.22
323 K, 10700 kPa, x1 = 0.0001583 | 472.58
323 K, 11100 kPa, x1 = 0.0003041 | 515.81
323 K, 11400 kPa, x1 = 0.0004264 | 543.31
323 K, 11700 kPa, x1 = 0.0005407 | 566.85
323 K, 12000 kPa, x1 = 0.0006537 | 587.07
333 K, 11900 kPa, x1 = 0.0002196 | 428.55
333 K, 12300 kPa, x1 = 0.0003629 | 458.89
333 K, 12600 kPa, x1 = 0.0004822 | 480.5
333 K, 12900 kPa, x1 = 0.0006024 | 500.8
333 K, 13200 kPa, x1 = 0.0007245 | 519.67
343 K, 12500 kPa, x1 = 0.000277 | 374.67
343 K, 12900 kPa, x1 = 0.0003827 | 397.3
343 K, 13200 kPa, x1 = 0.0004661 | 414.22
343 K, 13500 kPa, x1 = 0.00056 | 430.94
343 K, 13700 kPa, x1 = 0.0006445 | 441.9
353 K, 12800 kPa, x1 = 0.0003133 | 331.22
353 K, 13300 kPa, x1 = 0.0004305 | 353.15
353 K, 13700 kPa, x1 = 0.0005336 | 370.9
353 K, 14000 kPa, x1 = 0.0006155 | 384.26
353 K, 14300 kPa, x1 = 0.0007224 | 397.58

CCCCCCCCNC(=O)C(=O)NCCCCCCCC [N1,N2-dioctyloxalamide] + O=C=O
Settings | mass density [kg/m3]
313 K, 11700 kPa, x1 = 0.0001449 | 710.44
313 K, 12000 kPa, x1 = 0.0001679 | 719.38
313 K, 12500 kPa, x1 = 0.0002108 | 732.67
313 K, 13000 kPa, x1 = 0.00025 | 744.41
313 K, 13400 kPa, x1 = 0.000284 | 752.9
323 K, 12300 kPa, x1 = 0.0001146 | 604.62
323 K, 12900 kPa, x1 = 0.0001562 | 633.72
323 K, 13400 kPa, x1 = 0.000212 | 653.57
323 K, 13900 kPa, x1 = 0.0002628 | 670.57
323 K, 14400 kPa, x1 = 0.0003178 | 685.43
333 K, 12900 kPa, x1 = 9.49e-05 | 500.8
333 K, 13500 kPa, x1 = 0.0001511 | 537.09
333 K, 13900 kPa, x1 = 0.0002093 | 558.17
333 K, 14400 kPa, x1 = 0.0002622 | 581.45
333 K, 14800 kPa, x1 = 0.0003278 | 597.96
343 K, 13400 kPa, x1 = 9.77e-05 | 425.4
343 K, 13700 kPa, x1 = 0.0001344 | 441.9
343 K, 14000 kPa, x1 = 0.0001772 | 457.97
343 K, 14300 kPa, x1 = 0.0002091 | 473.49
343 K, 14600 kPa, x1 = 0.0002392 | 488.4
353 K, 13600 kPa, x1 = 0.0001134 | 366.46
353 K, 14000 kPa, x1 = 0.0001546 | 384.26
353 K, 14400 kPa, x1 = 0.0002019 | 402
353 K, 14700 kPa, x1 = 0.0002432 | 415.16
353 K, 15000 kPa, x1 = 0.0002821 | 428.15

CCCCNC(=O)C(=O)NCCCC [N,N'-dibutyloxalamide] + O=C=O
Settings | mass density [kg/m3]
313 K, 9100 kPa, x1 = 0.0002628 | 517.19
313 K, 9300 kPa, x1 = 0.0005167 | 556.08
313 K, 9500 kPa, x1 = 0.0008035 | 584.52
313 K, 9700 kPa, x1 = 0.001136 | 606.4
313 K, 9800 kPa, x1 = 0.001295 | 615.65
323 K, 10300 kPa, x1 = 0.0001531 | 423.74
323 K, 10600 kPa, x1 = 0.0003084 | 460.74
323 K, 10900 kPa, x1 = 0.000518 | 495.1
323 K, 11100 kPa, x1 = 0.0007008 | 515.81
323 K, 11300 kPa, x1 = 0.000942 | 534.61
333 K, 11600 kPa, x1 = 0.0003355 | 405.21
333 K, 12000 kPa, x1 = 0.0005099 | 436.26
333 K, 12300 kPa, x1 = 0.0007204 | 458.89
333 K, 12500 kPa, x1 = 0.0009202 | 473.43
333 K, 12700 kPa, x1 = 0.001115 | 487.42
343 K, 12100 kPa, x1 = 0.0003508 | 352.31
343 K, 12500 kPa, x1 = 0.000503 | 374.67
343 K, 12800 kPa, x1 = 0.000639 | 391.64
343 K, 13000 kPa, x1 = 0.0007821 | 402.95
343 K, 13200 kPa, x1 = 0.0009026 | 414.22
353 K, 12600 kPa, x1 = 0.0003735 | 322.59
353 K, 13100 kPa, x1 = 0.0005294 | 344.33
353 K, 13500 kPa, x1 = 0.0006999 | 362.01
353 K, 13800 kPa, x1 = 0.0008396 | 375.36
353 K, 14000 kPa, x1 = 0.0009729 | 384.26
